Reference: patent publication US20250057808A1, “COMPOSITION COMPRISING BETA LACTAM FOR TREATING ALCOHOL DEPENDENCE AND ALCOHOL ASSOCIATED DISEASES OR CONDITIONS” (Temple University of the Commonwealth System of Higher …, priority 2023, published 2025)
“Also recorded” adds a separate entry of the source.

How the values were obtained:
mGluR5 = test: Western blot mGluR5 expression in NAc-core and NAc-shell; assay type: in vivo, P rats; conditions: MC-100093 50 mg/kg or ceftriaxone 200 mg/kg i.p. 5 days
Description: (§1) We used micro-punch procedure to dissect the subregions of the NAc such as NAc-core and NAc-shell as well as the subregions of prefrontal cortex such as infralimbic (IL) and prelimbic (PL) from the brain on day 6 after the last injection day. P rats were removed from the cage and rapidly euthanized by CO2 inhalation followed by rapid decapitation with a guillotine. Brains were isolated and immediately frozen on dry ice and stored at −80° C. The stereotaxic coordinates provided by Paxinos and colleague's rat brain stereotactic atlas was used to isolate NAc-core and NAc-shell using a cryostat apparatus (−20° C.), which then kept at −80° C. for later western blot analyses.
(§2) Western Blot assay was performed to measure changes in the expression of GLT-1, xCT, mGluR1, mGluR5, PPAR-α, PPARγ, GAPDH and β-tubulin in the NAc-core and NAc-shell as described in previous publications. A lysis buffer containing protease and phosphatase inhibitors was used to generate a homogenate of liver, Nac-core, and Nac-shell samples. The amount of protein was quantified using a detergent compatible protein assay (Bio-Rad, Hercules, CA, USA) for each sample. Samples were mixed with laemmli dye and loaded with equal amounts on polyacrylamide gels (10%), which separated the proteins using electrophoresis. After that, polyvinylidene difluoride (PVDF) membranes were used to transfer the proteins electrophoretically from the gels. Membranes were incubated in 5% free-fat milk in Tris-buffered saline with Tween-20 (TBST) for 30-60 minutes at room temperature. Membranes were then incubated with appropriate primary antibodies overnight at 4° C.: rabbit anti-GLT-1 (1:5000, Abcam, ab41621), rabbit anti-xCT (1:2000, Abcam, ab175186), rabbit anti-mGluR1 (1:1000, Abcam, ab82211), rabbit anti-mGluR5 (1:1000, Abcam, ab76316), rabbit anti-PPAR-α (1:1000, Abcam, ab24509), and rabbit anti-PPARγ (1:1000, Abcam, ab209350). Mouse anti-β-tubulin (1:1000; BioLegend) was used as a loading control antibody for the brain samples and rabbit anti-GAPDH (1:5000; cell signaling) was used as a loading control antibody for the liver samples. Membranes were washed five times on the next day with TBST followed by incubation with appropriate secondary antibody (1:5000) for 90 minutes at room temperature. Chemiluminescent reagents (Super Signal West Pico, Pierce Inc.) were used to detect the proteins using a GeneSys imaging system to develop the digitized blot images. Water-control group data were represented as 100% and all other values were expressed relative to control group to detect changes in the expression of the protein of interest in the brain and liver samples.
(§3) All statistical analyses were conducted with Graphpad Prism software, with p-values of 0.05 or less being statistically significant. […]

mGluR1 = test: Western blot mGluR1 expression in NAc-core and NAc-shell; assay type: in vivo, P rats; conditions: MC-100093 50 mg/kg or ceftriaxone 200 mg/kg i.p. 5 days; among all groups
Description: as §1, §2, §3

PPAR-γ = test: Western blot PPAR-γ expression in liver; assay type: in vivo, P rats; conditions: MC-100093 50 mg/kg or ceftriaxone 200 mg/kg i.p. 5 days; between all groups
Description: Western Blot assay was performed to measure changes in the expression of GLT-1, xCT, mGluR1, mGluR5, PPAR-α, PPARγ, GAPDH and β-tubulin in the NAc-core and NAc-shell as described in previous publications. A lysis buffer containing protease and phosphatase inhibitors was used to generate a homogenate of liver, Nac-core, and Nac-shell samples. The amount of protein was quantified using a detergent compatible protein assay (Bio-Rad, Hercules, CA, USA) for each sample. Samples were mixed with laemmli dye and loaded with equal amounts on polyacrylamide gels (10%), which separated the proteins using electrophoresis. After that, polyvinylidene difluoride (PVDF) membranes were used to transfer the proteins electrophoretically from the gels. Membranes were incubated in 5% free-fat milk in Tris-buffered saline with Tween-20 (TBST) for 30-60 minutes at room temperature. Membranes were then incubated with appropriate primary antibodies overnight at 4° C.: rabbit anti-GLT-1 (1:5000, Abcam, ab41621), rabbit anti-xCT (1:2000, Abcam, ab175186), rabbit anti-mGluR1 (1:1000, Abcam, ab82211), rabbit anti-mGluR5 (1:1000, Abcam, ab76316), rabbit anti-PPAR-α (1:1000, Abcam, ab24509), and rabbit anti-PPARγ (1:1000, Abcam, ab209350). […]

[1] = Ethanol intake, preference, water intake and body weight in male and female P rats (section B); assay type: in vivo, Male and female alcohol-preferring (P) rats; conditions: for Body weight / Ethanol consumption: 100 mg/kg; for Ethanol consumption / Ethanol preference / Water consumption: vs ethanol-saline group; for Ethanol preference / Water consumption: 100 mg/kg i.p.; for Ethanol preference: Day 1 through Day 5
Description: Male and female alcohol-preferring (P) rats were acquired from Indiana University School of Medicine, Indianapolis, IN at the age of 80-85 days. All animals were single housed in a room with temperature at 22° C. and 50% humidity in a 12 h light/dark cycle. Rats had free access to food and water throughout the experimental procedures. All the experimental procedures were approved by the University of Toledo Institutional Animal Care and Use Committee (IACUC) under IACUC protocol #400160.
At the age of 90-100 days, 5-7 male and female rats were assigned randomly to three groups: (1) Water-drinking (Water-Saline) group with no access to ethanol and served as a control group; (2) Ethanol-Saline group, which was exposed to continuous free-choice access to ethanol (15% and 30%, v/v, concurrently), and water for five weeks, and saline i.p. injections were performed from Days 1-5 on Week 6; and (3) Ethanol-MC-100093 group, which had continuous free-choice access to ethanol (15% and 30%, v/v), and water for five weeks, and MC-100093 i.p. injections were performed from Days 1-5 on Week 6. Ethanol and water intake were measured as g/kg/day. Rats were required to meet the criterion of an average ethanol consumption of 4 g/kg/day to be included in the study, for at least 2 weeks before saline vehicle or MC-100093 i.p. injections, as adopted in previous studies. Average ethanol and water consumptions throughout Week 5 served as a baseline. At Week 6 of the experiment, ethanol-MC-100093 group received MC-100093 at a dose of 100 mg/kg (i.p.) once daily for five days, and ethanol-saline and water-saline groups received saline vehicle as an i.p injection for five consecutive days. Water and ethanol were measured daily 24 hours after the first i.p. injections of saline or MC-100093 and 24 hours after the last i.p. injections of saline or MC-100093.
All statistical analyses were conducted using GraphPad Prism (10). Two-way (mixed) ANOVA followed by Bonferroni multiple comparison post-hoc test was performed to analyze daily ethanol intake, average daily water intake and body weight. One-way ANOVA followed by Newman-Keuls post hoc tests were used to analyze Western blot data. All statistical analyses data were reported as a p<0.05 of significance.
Ethanol preference was calculated as total ethanol consumption/total fluid consumption×100 from daily alcohol and water consumption.

[2] = female P rats, 100 mg/kg i.p. 5 days
[3] = male P rats, 100 mg/kg i.p. 5 days

C[C@@H](O)[C@H]1C(=O)N[C@@H]1[C@@H](C)C(=O)N1CCN(C)CC1 [MC-100093]
Protein expression of mGluR5 in the NAc-core (mGluR5; among all groups): non-significant difference; also recorded: no significant difference
Protein expression of mGluR5 in the NAc-shell (mGluR5; vs control or ethanol groups): no significant change in the expression of mGluR5; also recorded: significantly downregulated in ethanol group compared to control, Ethanol-MC (50 mg/kg), and Ethanol-CEF (200 mg/kg) groups; also recorded: normalizing levels of mGluR5
Protein expression of mGluR1 in the NAc-core (mGluR1): non-significant difference; also recorded: no significant difference
Protein expression of mGluR1 in the NAc-shell (mGluR1): non-significant differences; also recorded: no significant difference
Protein expression of PPAR-γ in the liver (PPAR-γ): not changed significantly
Attenuation effect on ethanol consumption, male compared with female P rats ([1]; 100 mg/kg i.p. 5 days): higher attenuation effect on ethanol consumption in male P rats exceeding female P rats
Body weight [1, 2]: no significant effect on body weights; also recorded: no effect on the body weight
Ethanol consumption [1, 2]: reduced ethanol consumption in both male and female P rats from Day 1-5; also recorded: significant decrease in ethanol consumption from Day 1 through Day 5; also recorded: decreased ethanol consumption in male and female P rats
Ethanol preference ([1]; female P rats): significant decrease in percent ethanol preference
Water consumption ([1]; female P rats): significant increase in water consumption from Day 1 through Day 5
Body weight [1, 3]: no significant effect on body weights; also recorded: no effect on the body weight
Ethanol consumption [1, 3]: reduced ethanol consumption in both male and female P rats from Day 1-5; also recorded: significant decrease in ethanol consumption from Day 1 through Day 5; also recorded: decreased ethanol consumption in male and female P rats
Ethanol preference ([1]; male P rats): significant decrease in percent ethanol preference
Water consumption ([1]; male P rats): significant increase in water consumption from treatment Day 1 through Day 5
